For one assay, the target named is human P2X3 receptor (Homo sapiens (Human), UniProt P56373). Briefly: Intracellular calcium measurement (FLIPR, Fluo-4) of antagonist activity at human P2X3 receptors. Format: cell-based. The note with it: read-out: hP2X3 IC50. Summed up: (§1)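 Antagonism quantified from peak calcium fluorescence (Fluo-4, FLIPR, 90 sec read) evoked by EC80 α,β-Me-ATP, after a 30 min, 37° C. compound pretreatment in 1% DMSO. Human P2X3- or P2X2/3-expressing cells used; triplicate means fitted for IC50, percent maximal inhibition and Hill coefficient.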
Chain of human P2X3 receptor (P56373 whole entry): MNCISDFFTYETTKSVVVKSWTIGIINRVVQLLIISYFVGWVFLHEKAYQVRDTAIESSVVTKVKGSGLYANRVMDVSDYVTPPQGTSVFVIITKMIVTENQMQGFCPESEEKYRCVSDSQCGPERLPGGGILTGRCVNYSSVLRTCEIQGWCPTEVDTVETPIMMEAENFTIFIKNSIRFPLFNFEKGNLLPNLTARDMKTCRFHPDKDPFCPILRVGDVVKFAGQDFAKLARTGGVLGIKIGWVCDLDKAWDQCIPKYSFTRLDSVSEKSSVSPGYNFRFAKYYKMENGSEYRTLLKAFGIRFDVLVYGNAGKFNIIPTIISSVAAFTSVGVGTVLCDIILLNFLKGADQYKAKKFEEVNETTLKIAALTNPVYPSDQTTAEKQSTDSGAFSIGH

The next assay concerns the target human P2X2/3 receptor (Homo sapiens (Human), UniProt P56373+Q9UBL9). Briefly: Intracellular calcium measurement (FLIPR, Fluo-4) of antagonist activity at human P2X2/3 receptors. The assay is classed as cell-based. The gist of the method:
as §1

The mark [1] stands for this setting: human P2X3, FLIPR calcium assay, agonist α,β-Me-ATP.
[2] abbreviates: human P2X2/3, FLIPR calcium assay, agonist α,β-Me-ATP, read-out: hP2X2/3 IC50.

Where two headings read alike, the source gives them in different places.

Chain of human P2X2/3 receptor (P56373 whole entry): as above
Chain of human P2X2/3 receptor (Q9UBL9 whole entry): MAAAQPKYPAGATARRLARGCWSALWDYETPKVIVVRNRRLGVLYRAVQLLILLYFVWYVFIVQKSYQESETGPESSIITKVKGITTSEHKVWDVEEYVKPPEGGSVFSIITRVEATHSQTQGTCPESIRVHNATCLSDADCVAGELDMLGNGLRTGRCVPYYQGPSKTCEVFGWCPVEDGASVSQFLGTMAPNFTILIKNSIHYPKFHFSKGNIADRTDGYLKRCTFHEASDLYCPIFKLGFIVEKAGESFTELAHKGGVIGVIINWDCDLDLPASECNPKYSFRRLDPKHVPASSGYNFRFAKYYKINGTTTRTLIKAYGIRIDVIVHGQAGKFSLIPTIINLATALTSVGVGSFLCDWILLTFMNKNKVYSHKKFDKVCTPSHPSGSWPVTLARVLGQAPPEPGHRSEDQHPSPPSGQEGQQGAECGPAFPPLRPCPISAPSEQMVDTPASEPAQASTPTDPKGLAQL

Turning to `C[C@@H](NC(=O)c1cc(OC[C@@H]2CCCO2)cc(-c2ncc(C3CCC3)s2)c1)c1cnc(C(F)(F)F)nc1` [Example 287, 3-(5-cyclobutyl-1,3-thiazol-2-yl)-5-[(2S)-tetrahydrofuran-2-ylmethoxy]-N-{(1R)-1-[2-(trifluoromethyl)pyrimidin-5-yl]ethyl}benzamide], the IC50 on human P2X3 receptor (setting [1]) turned out to be 35 nM; on human P2X2/3 receptor (setting [2]), 275 nM.
Consider `Cc1cnc(-c2cc(OC[C@H]3CN(C(C)C)CCO3)cc(C(=O)N[C@H](C)c3cnc(C(F)(F)F)nc3)c2)s1` [Example 381, 3-(5-methyl-1,3-thiazol-2-yl)-5-{[(2R)-4-(propan-2-yl)morpholin-2-yl]methoxy}-N-{(1R)-1-[2-(trifluoromethyl)pyrimidin-5-yl]ethyl}benzamide], for which the IC50 amounted to 16 nM on human P2X3 receptor (setting [1]) and 954 nM on human P2X2/3 receptor (setting [2]).
The like results for `Cc1cnc(-c2cc(OC[C@H]3COCCO3)cc(C(=O)N[C@H](C)c3cnc(C(F)(F)F)nc3)c2)s1` [Example 178, 3-[(2R)-1,4-dioxan-2-ylmethoxy]-5-(5-methyl-1,3-thiazol-2-yl)-N-{(1R)-1-[2-(trifluoromethyl)pyrimidin-5-yl]ethyl}benzamide] were, in that order, 39 nM and 1880 nM.
Take `Cc1cnc(-c2cc(OC3CCNC(C(F)(F)F)C3)cc(C(=O)N[C@H](C)c3cnc(C(F)(F)F)nc3)c2)s1` (single isomer, unassigned) [Example 207]: the IC50 on human P2X3 receptor (setting [1]) turned out to be 5 nM; on human P2X2/3 receptor (setting [2]) it was 87 nM.
In the case of `Cc1cnc(-c2cc(OCC34CC(CO3)N(C)C4)cc(C(=O)N[C@H](C)c3cnc(C(F)(F)F)nc3)c2)s1` (stereo partly drawn) [Example 406, 3-[(5-methyl-2-oxa-5-azabicyclo[2.2.1]hept-1-yl)methoxy]-5-(5-methyl-1,3-thiazol-2-yl)-N-{(1R)-1-[2-(trifluoromethyl)pyrimidin-5-yl]ethyl}benzamide], the figures for the IC50 at human P2X3 receptor (setting [1]) and on human P2X2/3 receptor (setting [2]) were 26 nM and 2030 nM, respectively.
With `CCc1cnc(-c2cc(OC[C@H]3CNCCO3)cc(C(=O)N[C@H](C)c3ccc(C(F)(F)F)nn3)c2)s1` [Example 415, 3-(5-ethyl-1,3-thiazol-2-yl)-5-[(2R)-morpholin-2-ylmethoxy]-N-{(1R)-1-[6-(trifluoromethyl)pyridazin-3-yl]ethyl}benzamide], the IC50 at human P2X3 receptor (setting [1]) came out at 10 nM; at human P2X2/3 receptor (setting [2]), 2180 nM.
Regarding `Cc1cc(Oc2cc(C(=O)N[C@H](C)c3ccc(C)nn3)cc(-c3ncc(C)s3)c2)ccn1` [Example 100, N-[(1R)-1-(6-Methylpyridazin-3-yl)ethyl]-3-[(2-methylpyridin-4-yl)oxy]-5-(5-methyl-1,3-thiazol-2-yl)benzamide], the results for the IC50 at human P2X3 receptor (setting [1]) and at human P2X2/3 receptor (setting [2]) were 6 nM and 16 nM, respectively.
In the case of `CCCN1CC2(COc3cc(C(=O)N[C@H](C)c4cnc(C(F)(F)F)nc4)cc(-c4ncc(C)s4)c3)CC1CO2` (stereo partly drawn) [Example 408, 3-(5-methyl-1,3-thiazol-2-yl)-5-[(5-propyl-2-oxa-5-azabicyclo[2.2.1]hept-1-yl)methoxy]-N-{(1R)-1-[2-(trifluoromethyl)pyrimidin-5-yl]ethyl}benzamide], the figures for the IC50 at human P2X3 receptor (setting [1]) and on human P2X2/3 receptor (setting [2]) were 32 nM and 1710 nM, respectively.
In the same order, the values of `Cc1cnc(-c2cc(O[C@@H]3CCOC3)cc(C(=O)NC(C)c3ncc(Cl)cc3F)c2)s1` (stereo partly drawn) [Example 14, N-[1-(5-chloro-3-fluoropyridin-2-yl)ethyl]-3-(5-methyl-1,3-thiazol-2-yl)-5-[(3R)-tetrahydrofuran-3-yloxy]benzamide] are 8 nM and 88 nM.
Regarding `CCc1cnc(-c2cc(OC[C@@H]3CN(C)CCO3)cc(C(=O)N[C@H](C)c3cnc(C(F)(F)F)nc3)c2)s1` [Example 375, 3-(5-ethyl-1,3-thiazol-2-yl)-5-{[(2S)-4-methylmorpholin-2-yl]methoxy}-N-{(1R)-1-[2-(trifluoromethyl)pyrimidin-5-yl]ethyl}benzamide], the IC50 at human P2X3 receptor (setting [1]) is 11 nM; at human P2X2/3 receptor (setting [2]), 185 nM.
On to `Cc1cnc(-c2cc(O[C@H]3CN4CCC3CC4)cc(C(=O)N[C@H](C)c3ccc(C(F)(F)F)nc3)c2)s1` [Example 172, 3-[(3R)-1-azabicyclo[2.2.2]oct-3-yloxy]-5-(5-methyl-1,3-thiazol-2-yl)-N-{(1R)-1-[6-(trifluoromethyl)pyridin-3-yl]ethyl}benzamide], for which the IC50 on human P2X3 receptor stood at 31 nM; on human P2X2/3 receptor (hP2X2/3 IC50 (nM)), 2110 nM.
On to `CC#CCOc1cc(C(=O)N[C@H](C)c2ccc(C)nn2)cc(-c2ncc(C)s2)c1` [Example 191, 3-(but-2-yn-1-yloxy)-N-[(1R)-1-(6-methylpyridazin-3-yl)ethyl]-5-(5-methyl-1,3-thiazol-2-yl) benzamide], for which the IC50 on human P2X3 receptor (setting [1]) amounted to 61 nM; at human P2X2/3 receptor (setting [2]), 364 nM.
In the same order, the values of `Cc1cnc(-c2cc(OC[C@H]3COCCN3C)cc(C(=O)N[C@H](C)c3cnc(C(F)(F)F)nc3)c2)s1` [Example 360] are 10 nM and 455 nM.
The like results for `Cc1cnc(-c2cc(O[C@@H]3CC[C@H]4[C@H]3OCCN4C)cc(C(=O)N[C@H](C)c3cnc(C(F)(F)F)nc3)c2)s1` [Example 218, 3-{[(4aS,7R, 7aR)-4-methyloctahydro-cyclopenta [b][1,4]oxazin-7-yl]oxy}-5-(5-methyl-1,3-thiazol-2-yl)-N-{(1R)-1-[2-(trifluoromethyl)pyrimidin-5-yl]ethyl} benzamide] were, in that order, 7 nM and 281 nM.
In the case of `C#CCOc1cc(C(=O)N[C@H](C)c2cnc(C)nc2)cc(-c2ncc(C)s2)c1` [Example 39, N-[(1R)-1-(2-Methylpyrimidin-5-yl)ethyl]-3-(5-methyl-1,3-thiazol-2-yl)-5-(prop-2-yn-1-yloxy)benzamide], the IC50 came out at 81 nM at human P2X3 receptor (setting [1]) and 1650 nM at human P2X2/3 receptor (setting [2]).
For `C[C@@H](NC(=O)c1cc(OCC2CCOCC2)cc(-c2ncc(C3CCC3)s2)c1)c1cnc(C(F)(F)F)nc1` [Example 120, 3-(5-Cyclobutyl-1,3-thiazol-2-yl)-5-(tetrahydro-2H-pyran-4-ylmethoxy)-N-{(1R)-1-[2-(trifluoromethyl)pyrimidin-5-yl]ethyl}benzamide], the values for the IC50 at human P2X3 receptor (setting [1]) and at human P2X2/3 receptor (setting [2]) were 14 nM and 104 nM, respectively.
In the same order, the values of `C#CCOc1cc(C(=O)N[C@H](C)c2ccc(C(F)(F)F)nn2)cc(-c2ncc(C)s2)c1` [Example 38, 3-(5-Methyl-1,3-thiazol-2-yl)-5-(prop-2-yn-1-yloxy)-N-[(1R)-1-[6-(trifluoromethyl)pyridazin-3-yl]ethyl]benzamide] are 55 nM and 1140 nM.
Consider `Cc1cnc(-c2cc(OC[C@@H]3CCCN3C)cc(C(=O)N[C@H](C)c3cnc(C(F)(F)F)nc3)c2)s1` [Example 378, 3-{[(2S)-1-methylpyrrolidin-2-yl]methoxy}-5-(5-methyl-1,3-thiazol-2-yl)-N-{(1R)-1-[2-(trifluoromethyl)pyrimidin-5-yl]ethyl}benzamide], for which the IC50 on human P2X3 receptor (setting [1]) is 60 nM; at human P2X2/3 receptor (setting [2]) it was 3750 nM.
